# Assay results taken from patent US6025333A, “Treatment of CNS tumors with metalloprotease inhibitors” (Erziehungsdirektion of the Canton Zurich, priority 1995, dated 2000).
# Read-outs that look alike come from different tables or passages of the source. Square brackets hold non-standard residues; d marks the D form. Peptide text beside a SMILES is read from it. * marks the point of attachment. Sta = CC(C)C[C@H](N)[C@@H](O)CC(=O)O; Isovaleryl = CC(C)CC(=O)*; Cbz = O=C(OCc1ccccc1)*
# B1: 2-macroglobulin: general protease inhibitor (protein, UniProt P01023 24-1474, looked up)
# Alpha-2-macroglobulin: SVSGKPQYMVLVPSLLHTETTEKGCVLLSYLNETVTVSASLESVRGNRSLFTDLEAENDVLHCVAFAVPKSSSNEEVMFLTVQVKGPTQEFKKRTTVMVKNEDSLVFVQTDKSIYKPGQTVKFRVVSMDENFHPLNELIPLVYIQDPKGNRIAQWQSFQLEGGLKQFSFPLSSEPFQGSYKVVVQKKSGGRTEHPFTVEEFVLPKFEVQVTVPKIITILEEEMNVSVCGLYTYGKPVPGHVTVSICRKYSDASDCHGEDSQAFCEKFSGQLNSHGCFYQQVKTKVFQLKRKEYEMKLHTEAQIQEEGTVVELTGRQSSEITRTITKLSFVKVDSHFRQGIPFFGQVRLVDGKGVPIPNKVIFIRGNEANYYSNATTDEHGLVQFSINTTNVMGTSLTVRVNYKDRSPCYGYQWVSEEHEEAHHTAYLVFSPSKSFVHLEPMSHELPCGHTQTVQAHYILNGGTLLGLKKLSFYYLIMAKGGIVRTGTHGLLVKQEDMKGHFSISIPVKSDIAPVARLLIYAVLPTGDVIGDSAKYDVENCLANKVDLSFSPSQSLPASHAHLRVTAAPQSVCALRAVDQSVLLMKPDAELSASSVYNLLPEKDLTGFPGPLNDQDNEDCINRHNVYINGITYTPVSSTNEKDMYSFLEDMGLKAFTNSKIRKPKMCPQLQQYEMHGPEGLRVGFYESDVMGRGHARLVHVEEPHTETVRKYFPETWIWDLVVVNSAGVAEVGVTVPDTITEWKAGAFCLSEDAGLGISSTASLRAFQPFFVELTMPYSVIRGEAFTLKATVLNYLPKCIRVSVQLEASPAFLAVPVEKEQAPHCICANGRQTVSWAVTPKSLGNVNFTVSAEALESQELCGTEVPSVPEHGRKDTVIKPLLVEPEGLEKETTFNSLLCPSGGEVSEELSLKLPPNVVEESARASVSVLGDILGSAMQNTQNLLQMPYGCGEQNMVLFAPNIYVLDYLNETQQLTPEIKSKAIGYLNTGYQRQLNYKHYDGSYSTFGERYGRNQGNTWLTAFVLKTFAQARAYIFIDEAHITQALIWLSQRQKDNGCFRSSGSLLNNAIKGGVEDEVTLSAYITIALLEIPLTVTHPVVRNALFCLESAWKTAQEGDHGSHVYTKALLAYAFALAGNQDKRKEVLKSLNEEAVKKDNSVHWERPQKPKAPVGHFYEPQAPSAEVEMTSYVLLAYLTAQPAPTSEDLTSATNIVKWITKQQNAQGGFSSTQDTVVALHALSKYGAATFTRTGKAAQVTIQSSGTFSSKFQVDNNNRLLLQQVSLPELPGEYSMKVTGEGCVYLQTSLKYNILPEKEEFPFALGVQTLPQTCDEPKAHTSFQISLSVSYTGSRSASNMAIVDVKMVSGFIPLKPTVKMLERSNHVSRTEVSSNHVLIYLDKVSNQTLSLFFTVLQDVPVRDLKPAIVKVYDYYETDEFAIAEYNAPCSKDLGNA
# Experiments:
# [1] = system: C6 cells; test: C6 cell spreading on PLYS or CNS myelin with protease inhibitors; type: cell-based, rat; conditions: for effect on C6 cell spreading on CNS myelin: Table X; for Spreading on: PLYS (% of control on PLYS) / Spreading on: CNS (% of control on PLYS) / activity at 300 µM: 150 minutes; for activity at 300 µM / inhibition at 300 µM: Rattus norvegicus; for activity at 300 µM: C6, 2.5 h; for inhibition at 300 µM: C6
# Experimental: Rat C6, mouse NIH 3T3 and B16 cells were cultured in Dulbecco's modified Eagle's medium (DMEM) supplemented with 10% fetal calf serum (FCS), usually to maximally 70-80% confluency. Cells were harvested with a short trypsin treatment (0.1% in Ca^2+ /Mg^2+ -free Hank's medium for 90 seconds) stopped by addition of FCS in excess, collected by centrifugation. Cells were resuspended in either DMEM/FCS or defined serum-free medium (MEM) and used for experiments. Dissociated rat CNS glial cells were prepared starting from optic nerves of 6-7 days old Lewis rats as described in Section 6.1.1, supra and plated into poly-D-lysine (PLYS) coated wells (100 mm^2, 100 μl medium) at a density of 20,000 cells per well. The culture medium was an enriched L15 medium with 5% rat serum, penicillin and streptomycin. C6, 3T3 and B16 cells were added to 2 day old cultures at a concentration of 30,000 cells per well, incubated for two hours and fixed with warm 4% formalin in phosphate buffer. Inhibitory oligodendrocytes were identified by double labelling using the specific antibodies O1 and O4 (see Section 6.1.3, supra).
# (§1) Myelin from rat spinal cord (CNS) or sciatic nerve (PNS) purified on a discontinuous sucrose gradient as described in Section 6.1.5., was dried overnight onto PLYS coated wells (20 μg protein/well of 100 mm^2 surface). Unbound membranes were removed by three washes with Ca^2+ /Mg^2+ -free Hank's solution. Myelin coated wells were immediately used in substrate testing assays by the addition of 9,000 cells (C6, 3T3, or B16) per cm^2. Alternatively, we used extracted CNS myelin protein, or SDS-PAGE purified 35 and 250 kD inhibitory proteins reconstituted in liposomes (see Section 7.1.5, supra). Experiments were scored at different time points using a phase contrast microscope equipped with a photocamera. Quantifications were done using a surface integration program; three arbitrary fields were photographed for each well at a magnitude of 80×, at least 25 cells per picture were measured. Each point represents the mean of at least 3 wells±SEM. Results are expressed as μ^2 of projected cell surface, or as degree, which was calculated by subtracting from the projected surface value of a spreading cell, the surface value of a completely spheric cell.
# [2] = system: 3T3 cells; test: Treatment of CNS myelin with C6 plasma membranes, then 3T3 spreading and 3H-thymidine incorporation; type: cell-based, mouse; conditions: blockers added to C6 plasma membranes
# Experimental: as §1
# C6 cells grown to 80% confluency were washed twice with Hank's medium, and harvested in 20 ml 8.5% sucrose, 50 mM NaCl, 10 mM Tris buffer, pH 7.4, using a rubber policeman. After mechanical homogenization through a series of needles of decreasing size, a low purity plasma membrane fraction was obtained by centrifugation (5 minutes at 3000× g, 10 minutes at 8000× g, and then 2 hours at 100,000× g). A higher purity fraction was isolated by loading the material on a discontinuous sucrose gradient, containing 50 mM NaCl, 10 mM Tris, pH 7.4 (Quigley, 1976, J. Cell Biol. 71: 472-486). 20-40% sucrose interphase (C6 plasma membranes fraction) and 40-60% sucrose interphase (C6 mitochondrial fraction) were collected, washed in Hank's medium and resuspended in MEM.
# CNS myelin coated PLYS wells were prepared as described in the previous section, but instead of being immediately tested as substrate, they were first incubated with 50 μl of C6 plasma membranes (containing 0.8 mg protein/ml MEM) at 37° for 30 minutes. Dishes were then rinsed twice with Hank's medium and immediately used as substrates for 3T3 cells. In some experiments, protease blockers were added to the membranes using 10 times concentrated solutions.
# [3] = inhibitor 0.3 mM, PLYS value minus CNS myelin value
# [4] = inhibitor 1.0 mM, PLYS value minus CNS myelin value
# [5] = inhibitor 0.3 mM, CNS myelin, read-out: Spreading on: CNS (% of control on PLYS)
molecule,measurement,setting,value
"CC(C)C[C@H](NC(=O)[C@H](Cc1ccccc1)NCC(=O)O)C(=O)O [cm-phe-leu, Carboxymethyl-phe-leu]",effect on C6 cell spreading on CNS myelin,[1],did not inhibit C6 cell spreading
same,Spreading on: PLYS (% of control on PLYS),[1]; inhibitor 0.5 mM,95 % of control on PLYS
same,Spreading on: CNS (% of control on PLYS),"[1]; inhibitor 0.5 mM, CNS myelin",92 % of control on PLYS
same,Inhibition on CNS (%),"[1]; inhibitor 0.5 mM, PLYS value minus CNS myelin value",3%
CC(C)C[C@H](NC(=O)[C@@H](O)[C@H](N)Cc1ccccc1)C(=O)O [bestatine],effect on C6 cell spreading on CNS myelin,[1],did not impair C6 cell spreading
same,Inhibition on CNS (%),[1]; inhibitor 0.1 mM,0%
same,Spreading on: CNS (% of control on PLYS),"[1]; inhibitor 0.1 mM, CNS myelin",104 % of control on PLYS
"O=S(=O)(F)Cc1ccccc1 [PMSF, Phenyl methyl sulfonyl fluoride]",Spreading on: PLYS (% of control on PLYS),[1]; inhibitor 4.0 mM,100 % of control on PLYS
same,Spreading on: CNS (% of control on PLYS),"[1]; inhibitor 4.0 mM, CNS myelin",94 % of control on PLYS
same,Inhibition on CNS (%),"[1]; inhibitor 4.0 mM, PLYS value minus CNS myelin value",6%
CC(=O)N[C@@H](CC(C)C)C(=O)N[C@@H](CC(C)C)C(=O)N[C@H](C=O)CCCNC(=N)N [leupeptine],Spreading on: PLYS (% of control on PLYS),[1]; inhibitor 0.3 mM,91 % of control on PLYS
same,Spreading on: CNS (% of control on PLYS),"[1]; inhibitor 0.3 mM, CNS myelin",83 % of control on PLYS
same,Inhibition on CNS (%),[1]; [3],8%
same,effect on the C6 plasma membrane effect (neutralization of CNS myelin inhibitory activity),[2],did not inhibit this effect
carbobenzoxy-glycine-phenylalanine-amide [cbz-gly-phe-NH2],inhibition of C6 cell spreading on CNS myelin,[1],55%
same,Spreading on: PLYS (% of control on PLYS),[1]; inhibitor 1.0 mM,100 % of control on PLYS
same,Spreading on: CNS (% of control on PLYS),"[1]; inhibitor 1.0 mM, CNS myelin",45 % of control on PLYS
same,Inhibition on CNS (%),[1]; [4],55%
same,effect on the C6 plasma membrane effect (neutralization of CNS myelin inhibitory activity),[2],completely blocked
NC(=O)CNC(=O)CNC(=O)OCc1ccccc1 [cbz-gly-gly-NH2] (Cbz-Gly-Gly-NH2),Spreading on: CNS (% of control on PLYS),"[1]; inhibitor 1.0 mM, CNS myelin",99 % of control on PLYS
same,Inhibition on CNS (%),[1]; [4],1%
CC(C)C[C@H](NP(=O)(O)O[C@@H]1O[C@@H](C)[C@H](O)[C@@H](O)[C@H]1O)C(=O)N[C@@H](Cc1c[nH]c2ccccc12)C(=O)O [phosphoramidon],activity at 300 µM,[1]; [5],91%
same,inhibition at 300 µM,[1]; [3],9%
same,effect on C6 cell spreading on CNS myelin,[1],did not impair C6 cell spreading
CC(C)CC(=O)N[C@H](C(=O)N[C@H](C(=O)N[C@@H](CC(C)C)[C@@H](O)CC(=O)N[C@@H](C)C(=O)N[C@@H](CC(C)C)[C@@H](O)CC(=O)O)C(C)C)C(C)C [pepstatine] (Isovaleryl-VV[Sta]A[Sta]-OH),activity at 300 µM,"[1]; inhibitor 0.3 mM, read-out: Spreading on: PLYS (% of control on PLYS)",98%
same,activity at 300 µM,[1]; [5],95%
same,inhibition at 300 µM,[1]; [3],3%
same,effect on the C6 plasma membrane effect (neutralization of CNS myelin inhibitory activity),[2],did not inhibit this effect
B1,Spreading on: PLYS (% of control on PLYS),[1]; inhibitor 3.0 μM,70 % of control on PLYS
same,Spreading on: CNS (% of control on PLYS),"[1]; inhibitor 3.0 μM, CNS myelin",52 % of control on PLYS
same,Inhibition on CNS (%),"[1]; inhibitor 3.0 μM, PLYS value minus CNS myelin value",18%
